Experimental data: DBAASP
Converted amounts (≈) assume the structure as drawn. “And” between values parts separate entries of the source, which are not always exact repeats. Identical values can stand only once. One block for each molecule: values may come before it.

Experiments:
Test in all cases: ≥ marks a high value that may be exact or a test limit, other limits are often not marked, values filed in µg/mL are converted to µM
[1] = tested on: Escherichia coli NCTC 10418
[2] = tested on: Staphylococcus aureus NCTC 10788
[3] = tested on: Candida albicans NCPF 1467
[4] = tested on: Enterococcus faecalis NCTC 12697
[5] = tested on: Staphylococcus aureus ATCC 12493
[6] = tested on: Pseudomonas aeruginosa ATCC 27853
[7] = tested on: Acinetobacter baumannii ATCC 17978
[8] = tested on: Escherichia coli ATCC 8739
[9] = tested on: Staphylococcus aureus HNCMO 112011
[10] = tested on: Staphylococcus aureus ATCC 43300
[11] = tested on: Lacticaseibacillus rhamnosus 1.0925
[12] = tested on: Lacticaseibacillus rhamnosus 1.0385
[13] = tested on: Lacticaseibacillus rhamnosus 1.0911
[14] = tested on: Staphylococcus aureus ATCC 29213
[15] = tested on: Lacticaseibacillus rhamnosus 1.0386
[16] = tested on: Staphylococcus epidermidis ATCC 12228
[17] = tested on: Lacticaseibacillus rhamnosus 7469
[18] = tested on: Lactiplantibacillus plantarum 8014
[19] = tested on: Escherichia coli ATCC 25922
[20] = tested on: Escherichia coli UB1005
[21] = tested on: Candida krusei ATCC 6258
[22] = tested on: Candida parapsilosis ATCC 22019
[23] = tested on: Streptococcus salivarius
[24] = tested on: Listeria monocytogenes
[25] = tested on: Streptococcus dysgalactiae
[26] = tested on: Pasteurella multocida
[27] = tested on: Streptococcus mutans
[28] = tested on: Streptococcus equi
[29] = tested on: Candida albicans
[30] = tested on: Candida glabrata
[31] = tested on: Streptococcus pyogenes ATCC 19615
[32] = tested on: Streptococcus pneumoniae ATCC 49619
[33] = tested on: Streptococcus agalactiae ATCC 12386
[34] = tested on: Klebsiella pneumoniae
[35] = tested on: Streptococcus lutetiensis
[36] = tested on: Streptococcus oralis
[37] = tested on: Staphylococcus aureus MR
[38] = tested on: Pseudomonas putida NBRC 100650
[39] = tested on: Staphylococcus epidermidis NBRC 12993
[40] = tested on: Aspergillus oryzae NBRC 100959
[41] = tested on: Micrococcus luteus NBRC 3333
[42] = tested on: Candida viswanathii NBRC 10321
[43] = tested on: Escherichia coli NBRC 3972
[44] = tested on: Candida krusei ATCC 40095
[45] = tested on: Candida krusei ATCC 40147
[46] = tested on: Candida albicans CA1
[47] = tested on: Candida parapsilosis ATCC 90018
[48] = tested on: Klebsiella pneumoniae ATCC 13866

SMILES: CC[C@H](C)[C@H](NC(=O)[C@@H](NC(=O)CNC(=O)[C@@H]1CCCN1C(=O)[C@@H](NC(=O)[C@@H](NC(=O)[C@H](CC(N)=O)NC(=O)[C@H](C)NC(=O)[C@H](C)NC(=O)[C@@H](NC(=O)[C@H](CCCCN)NC(=O)[C@H](CC(C)C)NC(=O)[C@@H](NC(=O)CNC(=O)[C@@H]1CCCN1C(=O)[C@H](CC(C)C)NC(=O)[C@@H](N)Cc1ccccc1)[C@@H](C)CC)C(C)C)C(C)C)C(C)C)C(C)C)C(=O)O [FLPGILKVAANVVPGVI]
- MIC [1]: ≥ 512 µM
- MIC [2]: ≥ 512 µM
- MIC [3]: ≥ 512 µM
- MIC [4]: ≥ 512 µM
- MIC [5]: ≥ 512 µM
- MIC [6]: > 512 µM

SMILES: CC[C@H](C)[C@H](NC(=O)[C@H](CCCCN)NC(=O)[C@H](CCCCN)NC(=O)[C@H](C)NC(=O)[C@H](CC(C)C)NC(=O)[C@H](C)NC(=O)[C@H](C)NC(=O)[C@H](CC(C)C)NC(=O)[C@H](C)NC(=O)[C@H](CCCCN)NC(=O)[C@H](CCCN=C(N)N)NC(=O)[C@H](CCCN=C(N)N)NC(=O)[C@H](CCCN=C(N)N)NC(=O)[C@H](CS)NC(=O)[C@H](Cc1ccc(O)cc1)NC(=O)[C@H](CC(C)C)NC(=O)[C@@H]1CCCN1C(=O)[C@H](CCCN=C(N)N)NC(=O)[C@H](CCCN=C(N)N)NC(=O)[C@H](CS)NC(=O)[C@H](CCC(N)=O)NC(=O)[C@@H](N)CCC(N)=O)C(=O)N[C@@H](CC(C)C)C(=O)O [QQCRRPLYCRRRKALAALAKKIL]
- MIC [7]: 3.1 µM (≈ 8.54 µg/mL)
- MIC [8]: 3.1 µM (≈ 8.54 µg/mL)
- MIC [9]: 3.1 µM (≈ 8.54 µg/mL)

SMILES: CC[C@H](C)[C@H](NC(=O)[C@H](C)NC(=O)[C@H](CCCCN)NC(=O)[C@H](CC(C)C)NC(=O)[C@H](C)NC(=O)[C@H](Cc1c[nH]c2ccccc12)NC(=O)[C@H](CCCCN)NC(=O)[C@H](C)NC(=O)[C@H](CC(C)C)NC(=O)[C@@H](NC(=O)CNC(=O)[C@H](Cc1c[nH]c2ccccc12)NC(=O)[C@@H](N)Cc1ccccc1)[C@@H](C)O)C(=O)O [FWGTLAKWALKAI]
- MIC [44]: 10 µM and 20 µM
- MIC [45]: 10 µM (≈ 15 µg/mL)
- MIC [46]: 10 µM (≈ 15 µg/mL)
- MIC [47]: 20 µM (≈ 30.1 µg/mL)

SMILES: CC[C@H](C)[C@H](NC(=O)CN)C(=O)N[C@@H](Cc1cnc[nH]1)C(=O)NCC(=O)N[C@H](C(=O)N[C@H](C(=O)N[C@@H](CCCN=C(N)N)C(=O)N[C@@H](CO)C(=O)N[C@@H](Cc1ccccc1)C(=O)N[C@@H](CCSC)C(=O)N[C@@H](CCCN=C(N)N)C(=O)N[C@@H](CCSC)C(=O)N[C@@H](CC(C)C)C(=O)NCC(=O)N[C@@H](Cc1cnc[nH]1)C(=O)N[C@@H](CC(C)C)C(=O)NCC(=O)O)C(C)C)C(C)C [GIHGVVRSFMRMLGHLG]
- MIC [48]: ≥ 34.3 µM
- MIC [6]: 4.28 µM (≈ 8 µg/mL)

Continued, in another order:

- MIC [10]: 4 µM (≈ 7.32 µg/mL)
- MIC [11]: ≥ 64 µM
- MIC [12]: ≥ 64 µM
- MIC [13]: ≥ 64 µM
- MIC [14]: 4 µM (≈ 7.32 µg/mL)
- MIC [15]: 16 µM (≈ 29.3 µg/mL)
- MIC [16]: 4 µM (≈ 7.32 µg/mL)
- MIC [17]: ≥ 64 µM
- MIC [6]: 4 µM (≈ 7.32 µg/mL)
- MIC [19]: 4 µM (≈ 7.32 µg/mL)
- MIC [20]: 4 µM (≈ 7.32 µg/mL)
SMILES: NC(=O)CC[C@H](NC(=O)[C@H](Cc1c[nH]c2ccccc12)NC(=O)[C@H](Cc1c[nH]c2ccccc12)NC(=O)[C@H](Cc1c[nH]c2ccccc12)NC(=O)[C@H](CCC(N)=O)NC(=O)[C@H](Cc1c[nH]c2ccccc12)NC(=O)[C@H](CCCN=C(N)N)NC(=O)[C@@H](N)CCCN=C(N)N)C(=O)N[C@@H](Cc1c[nH]c2ccccc12)C(=O)N[C@@H](CCCN=C(N)N)C(=O)N[C@@H](CCCN=C(N)N)C(N)=O [RRWQWWWQWRR]
- MIC [18]: 8 µM (≈ 14.6 µg/mL)

- MIC [21]: 20.1 µM (≈ 64 µg/mL)
- MIC [22]: 10 µM (≈ 32 µg/mL)
- MIC [23]: 10 µM (≈ 32 µg/mL)
- MIC [14]: 10 µM and 6.27 µM
- MIC [24]: 20.1 µM (≈ 64 µg/mL)
- MIC [25]: 20.1 µM (≈ 64 µg/mL)
- MIC [26]: 20.1 µM (≈ 64 µg/mL)
- MIC [27]: 20.1 µM (≈ 64 µg/mL)
- MIC [28]: 20.1 µM (≈ 64 µg/mL)
- MIC [29]: > 20.1 µM
- MIC [30]: 20.1 µM (≈ 64 µg/mL)
- MIC [31]: 20.1 µM (≈ 64 µg/mL)
- MIC [32]: 20.1 µM (≈ 64 µg/mL)
- MIC [33]: 20.1 µM (≈ 64 µg/mL)
- MIC [34]: > 20.1 µM
- MIC [35]: 20.1 µM (≈ 64 µg/mL)
- MIC [36]: 20.1 µM (≈ 64 µg/mL)
- MIC [6]: > 20.1 µM
- MIC [37]: 10 µM (≈ 32 µg/mL)
SMILES: CC[C@H](C)[C@H](NC(=O)CNC(=O)[C@H](CC(=O)O)NC(=O)CNC(=O)[C@H](CC(C)C)NC(=O)[C@H](CCCN=C(N)N)NC(=O)[C@H](CCCCN)NC(=O)[C@H](CC(C)C)NC(=O)[C@H](CC(C)C)NC(=O)[C@H](CO)NC(=O)[C@H](CCCN=C(N)N)NC(=O)[C@H](CCCN=C(N)N)NC(=O)[C@H](CCCCN)NC(=O)[C@@H](NC(=O)[C@H](CCCCN)NC(=O)[C@@H](N)CO)[C@@H](C)O)C(=O)N[C@@H](CCCN=C(N)N)C(=O)NCC(=O)N[C@@H](Cc1ccccc1)C(=O)N[C@@H](Cc1c[nH]c2ccccc12)C(=O)N[C@@H](CC(N)=O)C(=O)NCC(=O)N[C@@H](Cc1ccccc1)C(=O)N[C@@H](CCCN=C(N)N)C(=O)NCC(=O)N[C@@H](CCCN=C(N)N)C(=O)N[C@@H](CCCCN)C(=O)O [SKTKRRSLLKRLGDGIRGFWNGFRGRK]

- MIC [38]: 17.5 µM (≈ 25 µg/mL)
- MIC [39]: ≥ 69.8 µM
- MIC [40]: 17.5 µM (≈ 25 µg/mL)
- MIC [41]: 17.5 µM (≈ 25 µg/mL)
- MIC [42]: 17.5 µM (≈ 25 µg/mL)
- MIC [43]: 8.73 µM (≈ 12.5 µg/mL)
SMILES: CC[C@H](C)[C@H](NC(=O)[C@H](CCCCN)NC(=O)[C@@H](N)CCCN=C(N)N)C(=O)N[C@@H](CCCCN)C(=O)N[C@H](C(=O)N[C@@H](Cc1ccc(O)cc1)C(=O)N[C@@H](CC(C)C)C(=O)N1CCC[C@H]1C(=O)N[C@@H](CCCN=C(N)N)C(=O)N[C@@H](CCSC)C(=O)N[C@@H](CCCCN)C(=O)O)C(C)C [RKIKVYLPRMK]
